Results taken from PubChem BioAssay AID248 (DTP/NCI, 2004).
Several values for one entry are separate records, joined by “and”; a condition that tells them apart may be missing. Equal entries are not always repeated. Toxic doses and inconclusive results are not listed. No stated cut-off is given here; in the data, active means T/C of 150% or more; inactive means T/C below 125%.

Test system: L1210 leukemia ip in BDF1 mice, survival T/C
Assay: NCI In Vivo Anticancer Drug Screen. Data for tumor model L1210 Leukemia (intraperitoneal) in B6D2F1 (BDF1) mice
Settings: endpoint: mean survival time, higher = longer survival
Method in brief: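 Transplantable tumor model; survival measured in treated vs vehicle control mice. Value = treated/control.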

[1] = dose: 100.0 mg/kg/injection, schedule: Q01DX001 (ip), vehicle: saline with Tween-80
[2] = dose: 200.0 mg/kg/injection, schedule: Q01DX001 (ip), vehicle: saline with Tween-80
[3] = dose: 100.0 mg/kg/injection, schedule: Q01DX009 (ip), vehicle: saline with Tween-80
[4] = dose: 200.0 mg/kg/injection, schedule: Q01DX009 (ip), vehicle: saline with Tween-80
[5] = dose: 400.0 mg/kg/injection, schedule: Q01DX009 (ip), vehicle: saline with Tween-80
[6] = dose: 100.0 mg/kg/injection, schedule: Q04DX003 (ip), vehicle: saline with Tween-80
[7] = dose: 200.0 mg/kg/injection, schedule: Q04DX003 (ip), vehicle: saline with Tween-80
[8] = dose: 400.0 mg/kg/injection, schedule: Q04DX003 (ip), vehicle: saline with Tween-80
[9] = dose: 50.0 mg/kg/injection, schedule: Q01DX009 (ip), vehicle: Klucel (hydroxypropylcellulose) (HPC)
[10] = dose: 50.0 mg/kg/injection, schedule: Q04DX003 (ip), vehicle: Klucel (hydroxypropylcellulose) (HPC)
[11] = dose: 100.0 mg/kg/injection, schedule: Q01DX001 (ip), vehicle: Klucel (hydroxypropylcellulose) (HPC)
[12] = dose: 100.0 mg/kg/injection, schedule: Q01DX009 (ip), vehicle: Klucel (hydroxypropylcellulose) (HPC)
[13] = dose: 100.0 mg/kg/injection, schedule: Q04DX003 (ip), vehicle: Klucel (hydroxypropylcellulose) (HPC)
[14] = dose: 200.0 mg/kg/injection, schedule: Q01DX001 (ip), vehicle: Klucel (hydroxypropylcellulose) (HPC)
[15] = dose: 200.0 mg/kg/injection, schedule: Q04DX003 (ip), vehicle: Klucel (hydroxypropylcellulose) (HPC)
[16] = dose: 400.0 mg/kg/injection, schedule: Q01DX001 (ip), vehicle: saline
[17] = dose: 25.0 mg/kg/injection, schedule: Q04DX003 (ip), vehicle: Klucel (hydroxypropylcellulose) (HPC)
[18] = dose: 200.0 mg/kg/injection, schedule: Q01DX009 (ip), vehicle: Klucel (hydroxypropylcellulose) (HPC)
[19] = dose: 400.0 mg/kg/injection, schedule: Q01DX009 (ip), vehicle: Klucel (hydroxypropylcellulose) (HPC)
[20] = dose: 400.0 mg/kg/injection, schedule: Q04DX003 (ip), vehicle: Klucel (hydroxypropylcellulose) (HPC)
[21] = dose: 25.0 mg/kg/injection, schedule: Q01DX009 (ip), vehicle: Klucel (hydroxypropylcellulose) (HPC)

Measured: T/C

C#CC(C)(C)OCC(CCl)OC(N)=O (stereo not given)
inactive: dose: 50.0 mg/kg/injection, schedule: Q04DX003 (ip), vehicle: saline 98 % of control | dose: 100.0 mg/kg/injection, schedule: Q04DX003 (ip), vehicle: saline 96 % of control | dose: 200.0 mg/kg/injection, schedule: Q04DX003 (ip), vehicle: saline 101 % of control | dose: 400.0 mg/kg/injection, schedule: Q04DX003 (ip), vehicle: saline 104 % of control

O=C1c2cscc2Cc2ccsc21
inactive: [1] 88 % of control | [2] 91 % of control

OC(Cc1cccc(/C=N/N2CCOCC2)n1)(C(F)(F)F)C(F)(F)F
inactive: [3] 91 % of control | [4] 98 % of control | [5] 89 % of control

CCC1(c2ccccc2)C(=O)NC(=O)N(CN2CCOCC2)C1=O (stereo not given)
inactive: dose: 50.0 mg/kg/injection, schedule: Q01DX009 (ip), vehicle: saline with Tween-80 114 % of control | [3] 93 % of control | [4] 97 % of control

Cc1c(Cl)cccc1NC(=O)/C=C/C(=O)O
inactive: [3] 98 % of control | [6] 95 % of control | [4] 94 % of control | [7] 93 % of control | [8] 103 % of control

CC(OC(=O)CBr)C(C)OC(=O)CBr (stereo not given)
inactive: dose: 50.0 mg/kg/injection, schedule: Q01DX001 (sc), vehicle: carboxymethylcellulose (CMC) 98 % of control | dose: 100.0 mg/kg/injection, schedule: Q01DX001 (sc), vehicle: carboxymethylcellulose (CMC) 98 % of control | dose: 200.0 mg/kg/injection, schedule: Q01DX001 (sc), vehicle: carboxymethylcellulose (CMC) 95 % of control | dose: 400.0 mg/kg/injection, schedule: Q01DX001 (sc), vehicle: carboxymethylcellulose (CMC) 98 % of control

CN1C(=O)N(Br)C(C)(C)C1=O
inactive: [9] 95 % of control | [10] 106 % of control | [11] 92 % of control | [12] 98 % of control | [13] 100 % of control | [14] 102 % of control | [15] 97 % of control

O=C1C=CC(=O)C(SCCCSC2=CC(=O)C(SCCCSC3=CC(=O)C=CC3=O)=CC2=O)=C1
inactive: dose: 100.0 mg/kg/injection, schedule: Q01DX001 (ip), vehicle: saline 92 % of control | dose: 200.0 mg/kg/injection, schedule: Q01DX001 (ip), vehicle: saline 92 % of control | [16] 101 % of control

Cc1ccc(CCNc2ncnc(Cl)c2N)cc1
inactive: dose: 50.0 mg/kg/injection, schedule: Q01DX001 (ip), vehicle: other 88 % of control | dose: 100.0 mg/kg/injection, schedule: Q01DX001 (ip), vehicle: other 92 % of control

CCOC(=O)CCN(C(=S)Nc1ccccc1)C1CCCCC1
inactive: dose: 100.0 mg/kg/injection, schedule: Q01DX Z (ip), vehicle: methylcellulose (MC) 94 % of control | dose: 200.0 mg/kg/injection, schedule: Q01DX Z (ip), vehicle: methylcellulose (MC) 92 % of control

CCOc1ccccc1/C=N\NC(=O)CCCC(=O)N/N=C/c1ccccc1OCC
inactive: [16] 111 % of control

CCOP(OCC)SSCn1nc2ccc3ccccc3n2c1=O
inactive: [9] 101 % of control

O=CNc1ccc(Cl)cc1
inactive: [17] 92 % of control | [10] 92 % of control | [13] 87 % of control | [15] 97 % of control

O=C(CC(CC(=O)c1ccccc1)c1ccco1)c1ccccc1
inactive: [12] 90 % of control | [13] 94 % of control | [18] 94 % of control | [15] 101 % of control | [19] 86 % of control | [20] 92 % of control

CC1OC(O[C@H]2C[C@](O)(C(C)O)Cc3c(O)c4c(c(O)c32)C(=O)c2c(O)cccc2C4=O)CC(NC=O)C1O (stereo not given in full)
inactive: dose: 0.05 mg/kg/injection, schedule: Q01DX009 (ip), vehicle: saline 116 % of control | dose: 0.1 mg/kg/injection, schedule: Q01DX001 (ip), vehicle: saline 105 % of control | dose: 0.1 mg/kg/injection, schedule: Q03DX003 (ip), vehicle: saline 112 % of control | dose: 0.2 mg/kg/injection, schedule: Q01DX001 (ip), vehicle: saline 116 % of control | dose: 0.2 mg/kg/injection, schedule: Q03DX003 (ip), vehicle: saline 119 % of control | dose: 0.8 mg/kg/injection, schedule: Q01DX009 (ip), vehicle: saline 119 % of control

CN(C)CCCN=Cc1[nH]c(=S)[nH]c(=O)c1Cc1ccc(Cl)cc1
inactive: [1] 102 % of control | [2] 111 % of control | dose: 400.0 mg/kg/injection, schedule: Q01DX001 (ip), vehicle: saline with Tween-80 101 % of control

NCC(O)(c1ccccc1)c1ccccc1
inactive: dose: 12.5 mg/kg/injection, schedule: Q01DX009 (ip), vehicle: Klucel (hydroxypropylcellulose) (HPC) 101 % of control | [21] 95 % of control | [9] 89 % of control | dose: 75.0 mg/kg/injection, schedule: Q01DX001 (ip), vehicle: other 100 % of control

O=C(OC1CC2CC1C1CSCC21)c1ccc([N+](=O)[O-])cc1 (stereo not given)
inactive: [12] 101 % of control | [13] 105 % of control | [18] 103 % of control | [15] 105 % of control | [19] 103 % of control | [20] 97 % of control

O=C(O)/C=C/C(=O)Nc1ccc([N+](=O)[O-])cc1
inactive: [3] 101 % of control | [6] 107 % of control | [4] 102 % of control | [7] 101 % of control | [5] 95 % of control | [8] 107 % of control

CC(=O)NC(=S)Nc1ccccc1
inactive: dose: 12.5 mg/kg/injection, schedule: Q04DX003 (ip), vehicle: Klucel (hydroxypropylcellulose) (HPC) 95 % of control | [17] 117 % of control | [10] 101 % of control

CCc1ccccc1NC(=O)SCCSC(=O)Nc1ccccc1CC
inactive: [21] 91 % of control | [9] 102 % of control | [12] 96 % of control and 87 % of control | [19] 104 % of control

CC(C)(C)N1CCC1CN (stereo not given)
inactive: dose: 75.0 mg/kg/injection, schedule: Q01DX001 (ip), vehicle: saline 104 % of control | dose: 150.0 mg/kg/injection, schedule: Q01DX001 (ip), vehicle: saline 102 % of control | dose: 300.0 mg/kg/injection, schedule: Q01DX001 (ip), vehicle: saline 102 % of control

O=C(O)c1cc(Cl)cc(F)c1Cl
inactive: dose: 100.0 mg/kg/injection, schedule: Q04DX002 (ip), vehicle: Klucel (hydroxypropylcellulose) (HPC) 101 % of control | dose: 200.0 mg/kg/injection, schedule: Q04DX002 (ip), vehicle: Klucel (hydroxypropylcellulose) (HPC) 105 % of control | dose: 400.0 mg/kg/injection, schedule: Q04DX002 (ip), vehicle: Klucel (hydroxypropylcellulose) (HPC) 105 % of control

CC1=C(Br)C(=O)C(c2c(C)cc(C)c(Br)c2C)=C(Br)C1=O
inactive: [10] 111 % of control | [11] 89 % of control | [13] 92 % of control | [14] 87 % of control | [15] 94 % of control
